Measured values from US20250074913A1, “PYRAZOLE DERIVATIVES AS STING AGONISTS” (Hoffmann-La Roche Inc., priority 2022, published 2025).
Like-named read-outs stand apart in the source and are kept apart here.

Experiments:
[1] = Single dose pharmacokinetics (SDPK) in female C57BL/6J mice; type: in vivo; details: mouse, 1 mg/kg, iv, plasma
Protocol: This is the single dose pharmacokinetics (PK) study in female C57/BL6 mice. The purpose of this study was to determine the pharmacokinetics of selected compounds following a single intravenous bolus injection in female C57BL/6J mice. Briefly, 3 female C57BL/6J mice (available from Shanghai Lingchang Biotechnology Co., Ltd) were treated with a single dose of compound intravenously at 1 mg/kg (IV). Blood samples were collected at 5 min, 15 min, 30 min, 1 h, 2 h, 4 h, 7 h and 24 h post-dose. Blood samples were placed on wet ice until centrifugation to obtain plasma samples. The compound concentration in plasma samples was determined using LC-MS/MS method. The pharmacokinetic parameters were calculated by non-compartmental analysis.

[2] = tested on: interferon regulatory factor (IRF) pathway in THP1-Dual™ cells; assay: THP1-Dual reporter gene assay (Agonist_THP1_EC50); type: cell-based; details: Homo sapiens, 20-24 hrs compound treatment, Lucia luciferase (IRF) readout
How it was run: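 Human THP-1 monocytes with Lucia luciferase under ISG54 minimal promoter plus five ISREs; ~33,000 cells/well with serially diluted compound, final 1% DMSO, 20-24 h at 37 °C. Supernatant Lucia luciferase read by QUANTI-Luc Gold luminescence; viability by CCK-8, A450 after 2 h.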

[3] = tested on: human PBMC; assay: hPBMC cytokine release assay (Luminex, IFN-β); type: cell-based; details: read-out: Agonist_hPBMC_IFN-β_EC50
Protocol: This is the cytokines concentration detection with Luminex assay for human PBMC supernatant. Human peripheral blood mononuclear cells (PBMC) are treated by compounds with appropriate time. Multiple cytokines are released in the supernatant in response to the compound stimulation. Luminex assay can measure the cytokines concentration in supernatant and the compounds activity on human PBMC can be evaluated.
Frozen PBMC was thawed and cultured in PRMI1640 (GIBCO 11875-093) whole medium with […] Heat inactivated-FBS (HI—FBS), 1% NEAA, […] in CO2 incubator overnight. Cells were centrifuged at 400×g for 5 minutes at 4° C. and the pellet was re-suspended with complete RPMI1640 medium to concentration of 1×10^6 cells/ml in cell culture flask T75 (Thermo Fisher Scientific). Compounds were serially diluted with DMSO and distributed to 96-well flat bottom cell plate (Corning 3599) with Echo555. 90 μL/well PBMC cells were seeded into the plates with Multidrop (Thermo Fisher Scientific). After 24 hours of incubation in CO2 incubator, cells were centrifuged at 400×g for 5 minutes at room temperature, 80 μL supernatant each well was collected for cytokines release test with luminex assay of Human custom ProcartaPlex 5-plex kit (Thermo Fisher Scientific PPX-05). 10 μL supernatant or standards were added to a mixture of color-coded beads, 5 μL Biotinylated detection antibodies specific to the analytes of interest were added and formed an antibody-antigen sandwich. 10 μL Phycoerythrin (PE)-conjugated streptavidin is added to the plate and then read signal of each well on the Luminex 200™. The raw data was analyzed by Millipore Analyst Software and cytokine concentrations were generated accordingly. The EC50 of corresponding cytokine such as interferon-β (IFN-β) was calculated by the 4-parameter sigmoidal concentration response model fitting.

[4] = 24 hours incubation, IFN-β in supernatant
[5] = female, C57BL/6J, prior art compounds (Table 4)

AUC(0-t) ([1]; female C57BL/6J mice) [ng·h/mL]	C0 ([1]; female C57BL/6J mice) [ng/mL]	clearance ([1]; female C57BL/6J mice) [mL/min/kg]	EC50 [2] [µM]	AUC(0-t) [1, 5] [ng·h/mL]	C0 [1, 5] [ng/mL]	clearance [1, 5] [mL/min/kg]	SMILES	EC50 [3, 4] [µM]	EC50 ([3]; prior art compounds (Table 4), IFN-β) [µM]
150	2200	111	0.005	–	–	–	CCCn1nc(C)c(O)c1-c1n[nH]c(-c2c(F)c(C(N)=O)n3cc(C)ncc23)n1 [Example 79, 7-fluoro-8-[3-(4-hydroxy-5-methyl-2-propyl-pyrazol-3-yl)-1H-1,2,4-triazol-5-yl]-3-methyl-pyrrolo[1,2-a]pyrazine-6-carboxamide]	0.022	–
–	–	–	0.006	–	–	–	COc1ccc(CCn2nc(C)c(O)c2-c2n[nH]c(-c3nc(C(N)=O)n4cc(C)ncc34)n2)cc1 [Example 70, 1-[3-[4-hydroxy-2-[2-(4-methoxyphenyl)ethyl]-5-methyl-pyrazol-3-yl]-1H-1,2,4-triazol-5-yl]-6-methyl-imidazo[1,5-a]pyrazine-3-carboxamide]	0.01	–

Second part, the compound before the results:

SMILES	AUC(0-t) ([1]; female C57BL/6J mice) [ng·h/mL]	C0 ([1]; female C57BL/6J mice) [ng/mL]	clearance ([1]; female C57BL/6J mice) [mL/min/kg]	EC50 [2] [µM]	AUC(0-t) [1, 5] [ng·h/mL]	C0 [1, 5] [ng/mL]	clearance [1, 5] [mL/min/kg]	EC50 [3, 4] [µM]	EC50 ([3]; prior art compounds (Table 4), IFN-β) [µM]
CCn1nc(C)c(O)c1-c1n[nH]c(-c2c(F)c(C(N)=O)n3cc(C)ncc23)n1 [Example 4, 8-[3-(2-ethyl-4-hydroxy-5-methyl-pyrazol-3-yl)-1H-1,2,4-triazol-5-yl]-7-fluoro-3-methyl-pyrrolo[1,2-a]pyrazine-6-carboxamide]	122	1720	137	0.162	–	–	–	–	–
CCCn1nc(C)c(O)c1-c1n[nH]c(-n2nc(C(N)=O)c3cc(C)ncc32)n1 [Example 31, 1-[3-(4-hydroxy-5-methyl-2-propyl-pyrazol-3-yl)-1H-1,2,4-triazol-5-yl]-5-methyl-pyrazolo[3,4-c]pyridine-3-carboxamide]	597	5500	30	0.019	–	–	–	0.032	–
CCn1nc(C)c(O)c1-c1nnc(-c2nc(C(N)=O)cc3c2cnn3C)[nH]1 [AC01, reference compound]	–	–	–	–	102	997	170	–	0.028
Cc1cc2c(C(N)=O)nn(-c3nc(-c4c(O)c(C)nn4CCc4ccccc4)n[nH]3)c2cn1 [Example 40, 1-[3-[4-hydroxy-5-methyl-2-(2-phenylethyl)pyrazol-3-yl]-1H-1,2,4-triazol-5-yl]-5-methyl-pyrazolo[3,4-c]pyridine-3-carboxamide]	151	1600	114	0.011	–	–	–	0.046	–
